{
  "source": "patent US20240024293A1",
  "about": "“NOMETHIAZOLES AS A TREATMENT FOR RETT SYNDROME” (REVIVO THERAPEUTICS, priority 2019, published 2024)",
  "key": {"[1]": {"test_system": "Mecp2 female mice (HET)", "assay": "Acoustic startle response in RETT mouse model", "format": "in vivo", "details": "HET mice at 8 weeks of age; all doses tested (1.35 or 13.5 mg/kg ip QD + 0.675 mg/ml in drinking water); FIG. 2", "experimental": "(§1) Experiments employed wild type (WT) mice and Mecp2 female mice (HET) that were provided by The Jackson Laboratory, Bar Harbor, ME.\n(§2) Breeding of the experimental mice were done at The Jackson Laboratories and were shipped at approximately 5 weeks of age. Dosing experiments were conducted at approximately 6 weeks of age.\n(§3) Treatment Groups (N=20) were as follow: • WT—Vehicle • HET—Vehicle • HET—RIV-0561 (1.35 mg/kg; ip QD)+0.675 mg/ml of RIV-0561 in drinking water • HET—RIV-0561 (13.5 mg/kg; ip QD)+0.675 mg/ml of RIV-0561 in drinking water\n(§4) NeuroCube® and Startle experiments were conducted when mice were at 8 and 12 weeks of age. All tests were conducted within 2 hours post IP dosing.\nThe acoustic startle measures an unconditioned reflex response to external auditory stimulation. Mice were placed in the startle enclosures and secured in the sound-attenuated startle chamber (Med Associates Inc., St Albans, VT) on top of a force transducer plate that measures the force of the movements made by the mouse for a 5 min habituation period of white noise (70 dB). Subsequent test sessions consisted of 10 blocks of eleven trials each. Within each block, stimuli of 70, 75, 80, 85, 90, 95, 100, 105, 110, 115, and 120 dB were presented in a random order with a variable inter-trial interval of mean 15 sec (10-20 sec). […] Responses were recorded for 150 ms from startle onset and were sampled every ms. […]"}, "[2]": {"test_system": "Mecp2 female mice (HET)", "assay": "NeuroCube gait analysis in RETT mouse model", "format": "in vivo", "experimental": "as §1, §2, §3, §4\nNeuroCube® system is a proprietary gait analysis system. The platform employs computer vision to detect changes in gait geometry and gait dynamics in rodent models of neurological disorders, pain, and neuropathies. This platform is unique for gait testing for the following reasons: (1) it is completely automated and thus removes any bias or subjectivity; (2) the system captures both gait geometry and gait dynamics (stance, swing, propulsion, etc.); and (3) the sensitivity of the computer vision and bioinformatics allow the capture of symptoms of the disease model earlier and more accurately.\nMice are placed in the NeuroCube® for a 5-min test. The most dominant features that define the disease phenotype (symptom descriptors) are identified and ranked. Complex bioinformatics algorithms are employed to calculate the discrimination probability between WT and HET mice and can thus detect a test compound's ability to reverse the disease phenotype."}, "[3]": {"details": "Gait features at 12 weeks, HET mice, dose not given"}},
  "note": "Where a name gives a salt, the structure may show the parent alone.",
  "data": [
    {"compound": "Cc1ncsc1CCO[N+](=O)[O-]", "note": "[RIV-5061, 2-(4-methylthiazol-5-yl)ethyl nitrate maleate]", "values": [
      {"measurement": "Startle response", "setting": "[1]", "value": "tendency to improve startle response"},
      {"measurement": "% Recovery, Body Motion", "setting": "[2]; [3]", "value": 19, "unit": "%"},
      {"measurement": "% Recovery, Gait Dynamic and Geometry", "setting": "[2]; [3]", "value": 53, "unit": "%"},
      {"measurement": "% Recovery, Overall Gait", "setting": "[2]; [3]", "value": 24, "unit": "%"},
      {"measurement": "% Recovery, Paw Features", "setting": "[2]; [3]", "value": 63, "unit": "%"},
      {"measurement": "% Recovery, Paw Positioning", "setting": "[2]; [3]", "value": 17, "unit": "%"},
      {"measurement": "% Recovery, Rhythmicity", "setting": "[2]; [3]", "value": 0, "unit": "%"},
      {"measurement": "Improvement of important gait features (up to)", "setting": "[2]; RETT mice, after 12 weeks of treatment, particularly at the lower dose (1.35 mg/kg IP daily + 0.675 mg/ml in drinking water)", "value": "> 60", "unit": "%"}
    ]}
  ]
}
